From patent EP2361243B9 (Virobay, Inc., priority 2008, dated 2010) come the findings set out here.

Common to all, as to type: biochemical
One assay concerns the target Human cathepsin B (Homo sapiens, UniProt P07858). The assay is described as follows: Cathepsin B Assay. The following applies: apparent inhibition constant; substrate Z-FR-AMC, pH 6, 30 min incubation at room temperature; read-out: CATB (Ki). The protocol:
(§1) Solutions of test compounds in varying concentrations were prepared in 10 µL of dimethyl sulfoxide (DMSO) and then diluted into assay buffer (40 µL, comprising: N,N-bis(2-hydroxyethyl)-2-aminoethanesulfonic acid (BES), 50 mM (pH 6); polyoxyethylenesorbitan monolaurate, 0.05%; and dithiothreitol (DTT), 2.5 mM). Human cathepsin B (0.025 pMoles in 25 µL of assay buffer) was added to the dilutions. The assay solutions were mixed for 5-10 seconds on a shaker plate, covered and incubated for 30 min at room temperature. Z-FR-AMC (20 nMoles in 25 µL of assay buffer) was added to the assay solutions and hydrolysis was followed spectrophotometrically at (λ 460 nm) for 5 min. Apparent inhibition constants (Ki) were calculated from the enzyme progress curves using standard mathematical models.

The target in a further assay is CATV (Homo sapiens, UniProt O60911). The assay is described as follows: Cathepsin V inhibition (CATV Ki, no method described).
CATV, sequence (O60911 114-334): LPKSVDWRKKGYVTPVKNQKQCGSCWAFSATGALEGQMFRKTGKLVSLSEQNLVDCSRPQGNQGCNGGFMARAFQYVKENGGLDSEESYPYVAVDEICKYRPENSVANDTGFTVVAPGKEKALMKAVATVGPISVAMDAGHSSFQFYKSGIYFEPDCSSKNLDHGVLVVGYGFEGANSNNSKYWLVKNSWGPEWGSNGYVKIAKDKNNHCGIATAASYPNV
Another assay deals with Human cathepsin L (Homo sapiens, UniProt P07711). The assay can be described thus: Cathepsin L Assay. The following applies: apparent inhibition constant; substrate Z-Phe-Arg-AMC, pH 5.5, 30 min incubation at room temperature; read-out: CATL (Ki). As for the experimental part: as §1, with “MES,” for “N,N-bis(2-hydroxyethyl)-2-aminoethanesulfonic acid (BES),”, “5.5); EDTA, 2.5 mM;” for “6); polyoxyethylenesorbitan monolaurate, 0.05%;”, “DTT,” for “dithiothreitol (DTT),”, “L (0.05” for “B (0.025”, “Z-Phe-Arg-AMC (1” for “Z-FR-AMC (20”
Human cathepsin L, sequence (P07711 114-333): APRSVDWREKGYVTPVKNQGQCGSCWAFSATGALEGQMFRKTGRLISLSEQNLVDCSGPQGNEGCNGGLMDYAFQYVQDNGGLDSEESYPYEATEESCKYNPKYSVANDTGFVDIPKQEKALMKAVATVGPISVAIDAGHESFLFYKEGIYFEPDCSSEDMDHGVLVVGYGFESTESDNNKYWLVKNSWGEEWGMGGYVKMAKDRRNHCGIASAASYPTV

The next assay deals with T1, Human cathepsin F (Homo sapiens, UniProt Q9UBX1).
T1 sequence (Q9UBX1 271-484): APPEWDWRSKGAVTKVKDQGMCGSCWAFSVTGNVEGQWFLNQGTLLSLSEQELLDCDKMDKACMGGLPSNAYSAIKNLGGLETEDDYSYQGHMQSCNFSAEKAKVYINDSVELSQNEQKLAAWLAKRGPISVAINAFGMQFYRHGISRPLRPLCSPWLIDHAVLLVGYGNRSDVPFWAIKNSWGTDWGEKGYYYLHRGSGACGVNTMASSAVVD
The assay can be described thus: Cathepsin F Assay. The following applies: apparent inhibition constant; substrate Z-Phe-Arg-AMC, pH 6.5, 30 min incubation at room temperature; read-out: CATF (Ki). As for the experimental part: (§2) Solutions of test compounds in varying concentrations were prepared in 10 µL of dimethyl sulfoxide (DMSO) and then diluted into assay buffer (40 µL, comprising: MES, 50 mM (pH 6.5); EDTA, 2.5 mM; and NaCl, 100 mM); DTT, 2.5 mM; and BSA, 0.01 %. Human cathepsin F (0.1 pMoles in 25 µL of assay buffer) was added to the dilutions. The assay solutions were mixed for 5-10 seconds on a shaker plate, covered and incubated for 30 min at room temperature. Z-Phe-Arg-AMC (2 nMoles in 25 µL of assay buffer containing 10% DMSO) was added to the assay solutions and hydrolysis was followed spectrophotometrically (at λ 460 nm) for 5 min. Apparent inhibition constants (Ki) were calculated from the enzyme progress curves using standard mathematical models.

A further assay has as its target Human cathepsin S (Homo sapiens, UniProt P25774). The assay is described as follows: Cathepsin S Assay. The following applies: apparent inhibition constant; substrate Z-Val-Val-Arg-AMC, pH 6.5, 30 min incubation at room temperature; read-out: CATS (Ki). As for the experimental part:
as §2, with “β-mercaptoethanol,” for “DTT,”, “[…].” for “0.01 %.”, “S (0.05” for “F (0.1”, “Z-Val-Val-Arg-AMC (4” for “Z-Phe-Arg-AMC (2”, “λ,” for “λ”

Each structure is given as a SMILES string.

Human cathepsin S, sequence (P25774 115-331): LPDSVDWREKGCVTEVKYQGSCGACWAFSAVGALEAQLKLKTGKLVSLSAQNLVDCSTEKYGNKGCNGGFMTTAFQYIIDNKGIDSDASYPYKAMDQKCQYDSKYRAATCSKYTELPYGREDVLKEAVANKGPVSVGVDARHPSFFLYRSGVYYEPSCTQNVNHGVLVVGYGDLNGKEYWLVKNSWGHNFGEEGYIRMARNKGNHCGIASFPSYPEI

With `N#CC1(NC(=O)[C@H](CS(=O)(=O)Cc2cccnc2)NCC(F)(F)Oc2ccc(F)cc2)CC1` [A, (R)-N-(1-cyanocyclopropyl)-2-(2,2-difluoro-2-(4-fluorophenoxy)ethylamino)-3-(pyridin-3-ylmethylsulfonyl)propanamide], the Ki on Human cathepsin B was over 1000 nM; at CATV it was under 1000 nM; at Human cathepsin L, over 1000 nM; on Human cathepsin F, over 1000 nM; at Human cathepsin S it was under 100 nM.
Take `CC[C@H](NC(=O)[C@H](CS(=O)(=O)Cc1cccnc1)NCC(F)(F)Oc1ccc(F)cc1)C(=O)C(=O)NC1CC1` [B, (S)-N-cyclopropyl-3-((R)-2-(2,2-difluoro-2-(4-fluorophenoxy)ethylamino)-3-(pyridin-3-ylmethylsulfonyl)propanamido)-2-oxopentanamide]: the Ki on Human cathepsin B is under 100 nM; on CATV it was under 100 nM; on Human cathepsin L it was under 100 nM; on Human cathepsin F, under 1000 nM; on Human cathepsin S, under 100 nM.
For the molecule `CC#C[C@H](N[C@@H](CSCC1CC1)C(=O)NC1(C#N)CC1)C(F)(F)Oc1ccc(SC)cc1` [Compound C, (R)-N-(1-cyanocyclopropyl)-3-(cyclopropylmethylthio)-2-((S)-1,1-difluoro-1-(4-(methylthio)phenoxy)pent-3-yn-2-ylamino)propanamide], the Ki at Human cathepsin B was under 100 nM; at CATV, over 1000 nM; on Human cathepsin L it was over 1000 nM; at Human cathepsin F, over 1000 nM; at Human cathepsin S it was under 1000 nM.
For `CC#C[C@H](N[C@@H](CS(=O)(=O)CC1CC1)C(=O)NC1(C#N)CC1)C(F)(F)Oc1ccc(S(C)(=O)=O)cc1` [D, (R)-N-(1-cyanocyclopropyl)-3-(cyclopropylmethylsulfonyl)-2-((S)-1,1-difluoro-1-(4-(methylsulfonyl)phenoxy)pent-3-yn-2-ylamino)propanamide], the Ki was over 1000 nM on Human cathepsin B; under 1000 nM on CATV; over 1000 nM on Human cathepsin L; over 1000 nM at Human cathepsin F; under 100 nM on Human cathepsin S.
Consider `CC#C[C@H](N[C@@H](CSCc1ccccn1)C(=O)NC1(C#N)CC1)C(F)(F)Oc1ccc(SC)cc1` [E, (R)-N-(1-cyanocyclopropyl)-2-((S)-1,1-difluoro-1-(4-(methylthio)phenoxy)pent-3-yn-2-ylamino)-3-(pyridin-2-ylmethylthio)propanamide], for which the Ki was over 1000 nM on Human cathepsin B; under 1000 nM at CATV; over 1000 nM on Human cathepsin L; over 1000 nM on Human cathepsin F; under 100 nM at Human cathepsin S.
As for `CC#C[C@H](N[C@@H](CS(=O)(=O)Cc1ccccn1)C(=O)NC1(C#N)CC1)C(F)(F)Oc1ccc(S(C)(=O)=O)cc1` [F, (R)-N-(1-cyanocyclopropyl)-2-((S)-1,1-difluoro-1-(4-(methylsulfonyl)phenoxy)pent-3-yn-2-ylamino)-3-(pyridin-2-ylmethylsulfonyl)propanamide], the Ki was over 1000 nM at Human cathepsin B; under 100 nM on CATV; over 1000 nM on Human cathepsin L; over 1000 nM on Human cathepsin F; under 100 nM on Human cathepsin S.
As for `CC#C[C@H](N[C@@H](CSCc1cccnc1)C(=O)NC1(C#N)CC1)C(F)(F)Oc1ccc(SC)cc1` [G], the Ki on Human cathepsin B was over 1000 nM; on CATV, under 1000 nM; at Human cathepsin L, over 1000 nM; at Human cathepsin F it was over 1000 nM; at Human cathepsin S, under 100 nM.
For the molecule `CC#C[C@H](N[C@@H](CS(=O)(=O)Cc1cccnc1)C(=O)NC1(C#N)CC1)C(F)(F)Oc1ccc(S(C)(=O)=O)cc1` [H, (R)-N-(1-cyanocyclopropyl)-3-((S)-1,1 1-difluoro-1-(4-(methylsulfonyl)phenoxy)pent-3-yn-2-ylamino)-2-((pyridin-3-ylmethylsulfonyl)methyl)propanamide], the Ki at Human cathepsin B is over 1000 nM; on CATV, under 100 nM; at Human cathepsin L, over 1000 nM; at Human cathepsin F, over 1000 nM; at Human cathepsin S, under 100 nM.
On to `CC#C[C@H](N[C@@H](CS(=O)(=O)Cc1ccc[n+]([O-])c1)C(=O)NC1(C#N)CC1)C(F)(F)Oc1ccc(S(C)(=O)=O)cc1` [I], for which the Ki on Human cathepsin B is over 1000 nM; at CATV, under 100 nM; on Human cathepsin L, over 1000 nM; on Human cathepsin F, over 1000 nM; at Human cathepsin S, under 100 nM.
For `CC[C@H](NC(=O)[C@H](CS(=O)(=O)CC1CC1)NCC(F)(F)Oc1ccc(F)cc1)C(=O)C(=O)NC1CC1` [J, (S)-N-cyclopropyl-3-((R)-3-(cyclopropylmethylsulfonyl)-2-(2,2-difluoro-2-(4-fluorophenoxy)ethylamino)propanamido)-2-oxopentanamide], the Ki is under 100 nM on Human cathepsin B; under 100 nM at CATV; under 1000 nM at Human cathepsin L; under 1000 nM on Human cathepsin F; under 100 nM at Human cathepsin S.
As to `CC[C@H](NC(=O)[C@H](CC(F)(F)CC1CC1)NCC(F)(F)Oc1ccc(F)cc1)C(=O)C(=O)NC1CC1` [K, (S)-5-cyclopropyl-N-((S)-1-(cyclopropylamino)-1,2-dioxopentan-3-yl)-2-(2,2-difluoro-2-(4-fluorophenoxy)ethylamino)-4,4-difluoropentanamide], the Ki was under 1000 nM at Human cathepsin B, under 100 nM on CATV, under 100 nM on Human cathepsin L and under 100 nM at Human cathepsin S.
In the case of `N#CC1(NC(=O)[C@H](CC(F)(F)CC2CC2)NCC(F)(F)Oc2ccc(F)cc2)CC1` [L, (S)-N-(1-cyanocyclopropyl)-5-cyclopropyl-2-(2,2-difluoro-2-(4-fluorophenoxy)ethylamino)-4,4-difluoropentanamide], the Ki was over 1000 nM on Human cathepsin B, over 1000 nM at CATV, over 1000 nM on Human cathepsin L and under 1000 nM at Human cathepsin S.
